Measured values reported in paper PMC12670405, “Second-Generation AURKA-Targeting PROTACs: Structural Optimization toward in Vivo Degradation in Neuroblastoma” (Journal of Medicinal Chemistry, 2025).

How the values were obtained:
Experiment in all cases: KINOMEscan scanMAX
Format in all cases: binding
Settings in all cases: read-out: Percent Control
ROS1 = biological target: T1, ROS1 (Homo sapiens, UniProt P08922)
T1 construct: purchased Eurofins Discovery (DiscoverX KINOMEscan scanMAX)
Method: (§1) The kinome-wide binding assay was performed by Eurofins Discovery using the scanMAX screening platform. More information can be found on the Eurofins Discovery Web site.

MYO3B = biological target: T2, MYO3B (Homo sapiens, UniProt Q8WXR4)
T2 construct: purchased Eurofins Discovery (DiscoverX KINOMEscan scanMAX)
Method: as §1

EGFR(L858R,T790M) = biological target: T3, EGFR(L858R,T790M) (Homo sapiens, UniProt P00533, L858R/T790M)
T3 construct: purchased Eurofins Discovery (DiscoverX KINOMEscan scanMAX)
Method: as §1

RET(V804M) = biological target: T4, RET(V804M) (Homo sapiens, UniProt P07949, V804M)
T4 construct: purchased Eurofins Discovery (DiscoverX KINOMEscan scanMAX)
Method: as §1

FLT3 = biological target: T5, FLT3 (Homo sapiens, UniProt P36888)
T5 construct: purchased Eurofins Discovery (DiscoverX KINOMEscan scanMAX)
Method: as §1

LRRK2(G2019S) = biological target: T6, LRRK2(G2019S) (Homo sapiens, UniProt Q5S007, G2019S)
T6 construct: purchased Eurofins Discovery (DiscoverX KINOMEscan scanMAX)
Method: as §1

PKNB(M.tuberculosis) = biological target: T7, PKNB(M.tuberculosis) (Mycobacterium tuberculosis, UniProt P9WI81)
T7 construct: purchased Eurofins Discovery (DiscoverX KINOMEscan scanMAX)
Method: as §1

ERK4 = biological target: T8, ERK4 (Homo sapiens, UniProt P31152)
T8 construct: purchased Eurofins Discovery (DiscoverX KINOMEscan scanMAX)
Method: as §1

CDK11 = biological target: T9, CDK11 (Homo sapiens, UniProt Q9BWU1)
T9 construct: purchased Eurofins Discovery (DiscoverX KINOMEscan scanMAX)
Method: as §1

MTOR = biological target: T10, MTOR (Homo sapiens, UniProt P42345)
T10 construct: purchased Eurofins Discovery (DiscoverX KINOMEscan scanMAX)
Method: as §1

FLT3(D835H) = biological target: T11, FLT3(D835H) (Homo sapiens, UniProt P36888, D835H)
T11 construct: purchased Eurofins Discovery (DiscoverX KINOMEscan scanMAX)
Method: as §1

PIP5K2B = biological target: T12, PIP5K2B (Homo sapiens, UniProt P78356)
T12 construct: purchased Eurofins Discovery (DiscoverX KINOMEscan scanMAX)
Method: as §1

KIT(D816H) = biological target: T13, KIT(D816H) (Homo sapiens, UniProt P10721, D816H)
T13 construct: purchased Eurofins Discovery (DiscoverX KINOMEscan scanMAX)
Method: as §1

[1] = biological target: T14, ABL1(F317L)-phosphorylated (Homo sapiens, UniProt P00519, F317L)
T14 construct: purchased Eurofins Discovery (DiscoverX KINOMEscan scanMAX)
Method: as §1

IKK-epsilon = biological target: T15, IKK-epsilon (Homo sapiens, UniProt Q14164)
T15 construct: purchased Eurofins Discovery (DiscoverX KINOMEscan scanMAX)
Method: as §1

BRAF = biological target: T16, BRAF (Homo sapiens, UniProt P15056)
T16 construct: purchased Eurofins Discovery (DiscoverX KINOMEscan scanMAX)
Method: as §1

MAP3K1 = biological target: T17, MAP3K1 (Homo sapiens, UniProt Q13233)
T17 construct: purchased Eurofins Discovery (DiscoverX KINOMEscan scanMAX)
Method: as §1

[2] = biological target: T18, ABL1(Q252H)-phosphorylated (Homo sapiens, UniProt P00519, Q252H)
T18 construct: purchased Eurofins Discovery (DiscoverX KINOMEscan scanMAX)
Method: as §1

EPHB1 = biological target: T19, EPHB1 (Homo sapiens, UniProt P54762)
T19 construct: purchased Eurofins Discovery (DiscoverX KINOMEscan scanMAX)
Method: as §1

[3] = biological target: T20, RSK1(Kin.Dom.2-C-terminal) (Homo sapiens, UniProt Q15418)
T20 construct: RSK1(Kin.Dom.2-C-terminal); purchased Eurofins Discovery (DiscoverX KINOMEscan scanMAX)
Method: as §1

CHEK1 = biological target: T21, CHEK1 (Homo sapiens, UniProt O14757)
T21 construct: purchased Eurofins Discovery (DiscoverX KINOMEscan scanMAX)
Method: as §1

ZAP70 = biological target: T22, ZAP70 (Homo sapiens, UniProt P43403)
T22 construct: purchased Eurofins Discovery (DiscoverX KINOMEscan scanMAX)
Method: as §1

HCK = biological target: T23, HCK (Homo sapiens, UniProt P08631)
T23 construct: purchased Eurofins Discovery (DiscoverX KINOMEscan scanMAX)
Method: as §1

FGFR3(G697C) = biological target: T24, FGFR3(G697C) (Homo sapiens, UniProt P22607, G697C)
T24 construct: purchased Eurofins Discovery (DiscoverX KINOMEscan scanMAX)
Method: as §1

PCTK2 = biological target: T25, PCTK2 (Homo sapiens, UniProt Q00537)
T25 construct: purchased Eurofins Discovery (DiscoverX KINOMEscan scanMAX)
Method: as §1

FLT3(D835Y) = biological target: T26, FLT3(D835Y) (Homo sapiens, UniProt P36888, D835Y)
T26 construct: purchased Eurofins Discovery (DiscoverX KINOMEscan scanMAX)
Method: as §1

MST3 = biological target: T27, MST3 (Homo sapiens, UniProt Q9Y6E0)
T27 construct: purchased Eurofins Discovery (DiscoverX KINOMEscan scanMAX)
Method: as §1

MARK4 = biological target: T28, MARK4 (Homo sapiens, UniProt Q96L34)
T28 construct: purchased Eurofins Discovery (DiscoverX KINOMEscan scanMAX)
Method: as §1

LTK = biological target: T29, LTK (Homo sapiens, UniProt P29376)
T29 construct: purchased Eurofins Discovery (DiscoverX KINOMEscan scanMAX)
Method: as §1

SRC = biological target: T30, SRC (Homo sapiens, UniProt P12931)
T30 construct: purchased Eurofins Discovery (DiscoverX KINOMEscan scanMAX)
Method: as §1

NEK4 = biological target: T31, NEK4 (Homo sapiens, UniProt P51957)
T31 construct: purchased Eurofins Discovery (DiscoverX KINOMEscan scanMAX)
Method: as §1

PAK4 = biological target: T32, PAK4 (Homo sapiens, UniProt O96013)
T32 construct: purchased Eurofins Discovery (DiscoverX KINOMEscan scanMAX)
Method: as §1

WNK3 = biological target: T33, WNK3 (Homo sapiens, UniProt Q9BYP7)
T33 construct: purchased Eurofins Discovery (DiscoverX KINOMEscan scanMAX)
Method: as §1

T19 sequence (P54762 18-984): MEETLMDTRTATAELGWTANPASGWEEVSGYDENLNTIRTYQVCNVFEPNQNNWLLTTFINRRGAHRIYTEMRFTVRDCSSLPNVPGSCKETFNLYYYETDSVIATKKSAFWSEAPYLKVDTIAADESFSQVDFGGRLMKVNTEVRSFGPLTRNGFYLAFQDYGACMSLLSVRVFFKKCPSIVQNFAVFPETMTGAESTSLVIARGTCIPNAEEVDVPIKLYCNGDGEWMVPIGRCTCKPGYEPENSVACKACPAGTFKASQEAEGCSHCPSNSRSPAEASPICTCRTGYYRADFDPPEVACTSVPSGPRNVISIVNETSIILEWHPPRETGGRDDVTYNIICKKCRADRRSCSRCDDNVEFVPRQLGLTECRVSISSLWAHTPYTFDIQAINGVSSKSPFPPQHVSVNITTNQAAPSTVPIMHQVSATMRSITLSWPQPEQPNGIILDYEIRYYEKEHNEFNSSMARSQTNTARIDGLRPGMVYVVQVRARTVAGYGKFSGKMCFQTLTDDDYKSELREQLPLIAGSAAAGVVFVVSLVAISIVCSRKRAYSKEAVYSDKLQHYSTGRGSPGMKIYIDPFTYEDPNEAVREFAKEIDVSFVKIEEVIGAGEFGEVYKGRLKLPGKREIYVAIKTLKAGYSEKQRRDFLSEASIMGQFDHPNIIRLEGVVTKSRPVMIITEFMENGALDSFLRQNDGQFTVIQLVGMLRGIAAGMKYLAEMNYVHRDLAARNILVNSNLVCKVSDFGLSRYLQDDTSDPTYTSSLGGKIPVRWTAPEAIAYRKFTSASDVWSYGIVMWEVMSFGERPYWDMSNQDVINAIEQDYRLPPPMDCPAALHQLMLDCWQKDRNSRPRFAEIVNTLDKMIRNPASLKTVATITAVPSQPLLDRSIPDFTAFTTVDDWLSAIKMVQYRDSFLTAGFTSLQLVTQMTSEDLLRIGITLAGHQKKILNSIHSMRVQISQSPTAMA
T1 sequence (P08922 28-2347): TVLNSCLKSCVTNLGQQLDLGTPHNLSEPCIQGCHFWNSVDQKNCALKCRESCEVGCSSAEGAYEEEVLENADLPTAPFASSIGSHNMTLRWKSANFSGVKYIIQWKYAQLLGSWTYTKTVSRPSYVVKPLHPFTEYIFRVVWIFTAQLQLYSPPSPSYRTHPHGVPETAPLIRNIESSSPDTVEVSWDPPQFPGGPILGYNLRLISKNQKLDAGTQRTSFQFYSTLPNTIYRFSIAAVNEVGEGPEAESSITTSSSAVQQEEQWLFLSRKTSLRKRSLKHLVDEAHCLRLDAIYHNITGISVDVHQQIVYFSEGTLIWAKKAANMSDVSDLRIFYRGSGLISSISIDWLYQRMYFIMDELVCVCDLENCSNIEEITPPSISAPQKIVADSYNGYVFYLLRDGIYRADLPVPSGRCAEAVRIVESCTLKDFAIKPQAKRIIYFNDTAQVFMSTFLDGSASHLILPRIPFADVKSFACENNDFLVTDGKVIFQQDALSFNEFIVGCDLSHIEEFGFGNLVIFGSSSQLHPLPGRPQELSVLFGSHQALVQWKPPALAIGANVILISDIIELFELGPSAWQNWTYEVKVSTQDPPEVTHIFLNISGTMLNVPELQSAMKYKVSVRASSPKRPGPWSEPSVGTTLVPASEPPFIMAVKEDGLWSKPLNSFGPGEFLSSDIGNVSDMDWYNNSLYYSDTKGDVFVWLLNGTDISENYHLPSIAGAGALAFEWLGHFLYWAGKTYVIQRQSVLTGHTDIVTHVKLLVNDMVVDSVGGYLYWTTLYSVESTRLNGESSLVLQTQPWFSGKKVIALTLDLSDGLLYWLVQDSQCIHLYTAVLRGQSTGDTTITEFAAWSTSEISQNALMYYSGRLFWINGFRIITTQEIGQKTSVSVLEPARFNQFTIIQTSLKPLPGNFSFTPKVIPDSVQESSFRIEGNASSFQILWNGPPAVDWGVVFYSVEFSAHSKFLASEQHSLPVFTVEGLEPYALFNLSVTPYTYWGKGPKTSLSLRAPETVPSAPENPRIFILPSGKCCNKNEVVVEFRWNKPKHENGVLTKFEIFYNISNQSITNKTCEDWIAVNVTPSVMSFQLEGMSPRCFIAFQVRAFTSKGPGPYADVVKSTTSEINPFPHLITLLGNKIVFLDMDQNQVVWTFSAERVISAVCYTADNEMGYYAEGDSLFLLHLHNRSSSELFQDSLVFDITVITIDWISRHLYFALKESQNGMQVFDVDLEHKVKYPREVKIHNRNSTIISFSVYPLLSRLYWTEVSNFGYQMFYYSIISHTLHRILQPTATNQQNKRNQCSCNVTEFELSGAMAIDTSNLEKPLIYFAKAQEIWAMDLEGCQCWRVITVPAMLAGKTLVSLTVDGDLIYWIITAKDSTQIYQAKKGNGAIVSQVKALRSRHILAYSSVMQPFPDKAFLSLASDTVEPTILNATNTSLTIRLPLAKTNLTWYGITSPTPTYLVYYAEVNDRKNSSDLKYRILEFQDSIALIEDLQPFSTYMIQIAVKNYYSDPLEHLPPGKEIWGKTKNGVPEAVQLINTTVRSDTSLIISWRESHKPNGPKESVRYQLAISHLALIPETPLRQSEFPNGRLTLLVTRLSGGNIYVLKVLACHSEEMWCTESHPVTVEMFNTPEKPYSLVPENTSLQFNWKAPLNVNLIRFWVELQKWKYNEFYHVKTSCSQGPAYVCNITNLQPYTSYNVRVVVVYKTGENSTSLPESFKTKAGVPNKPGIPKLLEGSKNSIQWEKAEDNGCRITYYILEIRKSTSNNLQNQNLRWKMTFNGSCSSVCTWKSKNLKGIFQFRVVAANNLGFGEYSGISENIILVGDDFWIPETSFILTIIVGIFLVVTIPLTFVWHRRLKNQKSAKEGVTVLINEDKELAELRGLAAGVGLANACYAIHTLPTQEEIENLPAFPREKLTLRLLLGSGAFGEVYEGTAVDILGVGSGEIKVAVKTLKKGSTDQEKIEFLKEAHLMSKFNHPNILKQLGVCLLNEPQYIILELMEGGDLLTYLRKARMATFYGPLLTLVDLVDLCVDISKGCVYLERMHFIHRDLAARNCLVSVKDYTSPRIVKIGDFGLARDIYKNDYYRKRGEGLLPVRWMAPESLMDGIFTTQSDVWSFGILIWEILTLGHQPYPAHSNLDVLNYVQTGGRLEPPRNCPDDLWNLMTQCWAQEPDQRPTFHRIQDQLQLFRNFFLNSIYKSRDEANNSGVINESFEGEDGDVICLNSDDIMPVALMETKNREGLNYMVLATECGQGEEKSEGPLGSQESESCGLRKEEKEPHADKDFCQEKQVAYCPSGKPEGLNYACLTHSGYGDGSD
T29 sequence (P29376 17-864): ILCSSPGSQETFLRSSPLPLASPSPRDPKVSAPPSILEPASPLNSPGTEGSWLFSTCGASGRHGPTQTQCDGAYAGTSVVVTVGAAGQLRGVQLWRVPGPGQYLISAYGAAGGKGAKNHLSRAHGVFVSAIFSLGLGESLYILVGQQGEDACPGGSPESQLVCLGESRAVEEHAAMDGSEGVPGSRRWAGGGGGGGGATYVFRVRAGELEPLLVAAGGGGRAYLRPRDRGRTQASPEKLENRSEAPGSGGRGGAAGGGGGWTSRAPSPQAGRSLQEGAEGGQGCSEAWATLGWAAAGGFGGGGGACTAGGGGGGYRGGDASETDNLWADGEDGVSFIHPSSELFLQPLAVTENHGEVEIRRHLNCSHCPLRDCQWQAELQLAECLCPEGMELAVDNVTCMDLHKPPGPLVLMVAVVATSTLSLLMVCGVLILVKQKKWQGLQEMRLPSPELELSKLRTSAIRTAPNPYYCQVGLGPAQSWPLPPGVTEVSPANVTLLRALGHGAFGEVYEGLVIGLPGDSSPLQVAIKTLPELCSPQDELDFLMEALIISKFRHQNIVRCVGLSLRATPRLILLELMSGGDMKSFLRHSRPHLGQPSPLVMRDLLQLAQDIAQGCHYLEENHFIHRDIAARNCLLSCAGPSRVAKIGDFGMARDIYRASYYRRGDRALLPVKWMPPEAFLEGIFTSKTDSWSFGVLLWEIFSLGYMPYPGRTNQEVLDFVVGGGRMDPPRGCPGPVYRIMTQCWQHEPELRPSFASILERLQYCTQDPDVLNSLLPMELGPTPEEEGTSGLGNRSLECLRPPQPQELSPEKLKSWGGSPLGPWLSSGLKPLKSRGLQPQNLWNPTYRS
T20 sequence (Q15418 392-735 limits assumed): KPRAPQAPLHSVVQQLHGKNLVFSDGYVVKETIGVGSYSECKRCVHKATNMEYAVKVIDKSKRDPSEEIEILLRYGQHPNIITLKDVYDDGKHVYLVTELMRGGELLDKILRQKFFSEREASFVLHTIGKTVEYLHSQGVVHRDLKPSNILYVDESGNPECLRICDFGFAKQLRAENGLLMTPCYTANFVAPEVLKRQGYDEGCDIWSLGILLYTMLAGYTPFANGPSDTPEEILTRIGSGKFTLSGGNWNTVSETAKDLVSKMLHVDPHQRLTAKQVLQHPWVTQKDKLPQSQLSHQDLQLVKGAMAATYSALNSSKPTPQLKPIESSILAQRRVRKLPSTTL
T23 sequence (P08631 whole entry): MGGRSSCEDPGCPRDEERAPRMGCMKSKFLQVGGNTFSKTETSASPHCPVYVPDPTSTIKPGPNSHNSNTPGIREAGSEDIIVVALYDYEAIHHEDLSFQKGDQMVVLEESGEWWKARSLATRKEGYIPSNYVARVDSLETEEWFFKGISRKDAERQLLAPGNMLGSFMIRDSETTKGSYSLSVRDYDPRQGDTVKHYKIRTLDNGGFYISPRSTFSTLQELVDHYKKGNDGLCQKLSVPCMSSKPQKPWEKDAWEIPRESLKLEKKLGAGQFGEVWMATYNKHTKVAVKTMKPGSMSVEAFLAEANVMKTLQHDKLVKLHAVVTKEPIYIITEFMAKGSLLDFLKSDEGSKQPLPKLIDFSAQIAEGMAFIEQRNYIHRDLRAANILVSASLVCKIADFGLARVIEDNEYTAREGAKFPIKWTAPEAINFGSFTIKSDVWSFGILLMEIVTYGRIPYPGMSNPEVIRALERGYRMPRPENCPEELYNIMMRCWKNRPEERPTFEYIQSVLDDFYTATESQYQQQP

Cc1cc(Nc2ccc(F)c(CC3(C(=O)N4CCC(F)(CN5CCN(c6ccc(N7CCC(=O)NC7=O)cn6)CC5)CC4)CCN(Cc4cccc(Cl)c4F)CC3)n2)n[nH]1 [SK5527]
remaining binding at 0.1 µM (ROS1; 100 nM): 61% | remaining binding at 1 µM (ROS1; 1000 nM): 16% | remaining binding at 0.1 µM (MYO3B; 100 nM): 100% | remaining binding at 1 µM (MYO3B; 1000 nM): 100% | remaining binding at 0.1 µM (EGFR(L858R,T790M); 100 nM): 82% | remaining binding at 1 µM (EGFR(L858R,T790M); 1000 nM): 87% | remaining binding at 0.1 µM (RET(V804M); 100 nM): 85% | remaining binding at 1 µM (RET(V804M); 1000 nM): 65% | remaining binding at 0.1 µM (FLT3; 100 nM): 90% | remaining binding at 1 µM (FLT3; 1000 nM): 77% | remaining binding at 0.1 µM (LRRK2(G2019S); 100 nM): 73% | remaining binding at 1 µM (LRRK2(G2019S); 1000 nM): 67% | remaining binding at 0.1 µM (PKNB(M.tuberculosis); 100 nM): 93% | remaining binding at 1 µM (PKNB(M.tuberculosis); 1000 nM): 94% | remaining binding at 0.1 µM (ERK4; 100 nM): 97% | remaining binding at 1 µM (ERK4; 1000 nM): 98% | remaining binding at 0.1 µM (CDK11; 100 nM): 92% | remaining binding at 1 µM (CDK11; 1000 nM): 85% | remaining binding at 0.1 µM (MTOR; 100 nM): 100% | remaining binding at 1 µM (MTOR; 1000 nM): 100% | remaining binding at 0.1 µM (FLT3(D835H); 100 nM): 89% | remaining binding at 1 µM (FLT3(D835H); 1000 nM): 54% | remaining binding at 0.1 µM (PIP5K2B; 100 nM): 100% | remaining binding at 1 µM (PIP5K2B; 1000 nM): 100% | remaining binding at 0.1 µM (KIT(D816H); 100 nM): 100% | remaining binding at 1 µM (KIT(D816H); 1000 nM): 100% | remaining binding at 0.1 µM ([1]; 100 nM): 92% | remaining binding at 1 µM ([1]; 1000 nM): 68% | remaining binding at 0.1 µM (IKK-epsilon; 100 nM): 75% | remaining binding at 1 µM (IKK-epsilon; 1000 nM): 67% | remaining binding at 0.1 µM (BRAF; 100 nM): 100% | remaining binding at 1 µM (BRAF; 1000 nM): 100% | remaining binding at 0.1 µM (MAP3K1; 100 nM): 93% | remaining binding at 1 µM (MAP3K1; 1000 nM): 60% | remaining binding at 0.1 µM ([2]; 100 nM): 68% | remaining binding at 1 µM ([2]; 1000 nM): 44% | remaining binding at 0.1 µM (EPHB1; 100 nM): 96% | remaining binding at 1 µM (EPHB1; 1000 nM): 79% | remaining binding at 0.1 µM ([3]; 100 nM): 85% | remaining binding at 1 µM ([3]; 1000 nM): 92% | remaining binding at 0.1 µM (CHEK1; 100 nM): 100% | remaining binding at 1 µM (CHEK1; 1000 nM): 100% | remaining binding at 0.1 µM (ZAP70; 100 nM): 97% | remaining binding at 1 µM (ZAP70; 1000 nM): 100% | remaining binding at 0.1 µM (HCK; 100 nM): 100% | remaining binding at 1 µM (HCK; 1000 nM): 100% | remaining binding at 0.1 µM (FGFR3(G697C); 100 nM): 75% | remaining binding at 1 µM (FGFR3(G697C); 1000 nM): 67% | remaining binding at 0.1 µM (PCTK2; 100 nM): 100% | remaining binding at 1 µM (PCTK2; 1000 nM): 100% | remaining binding at 0.1 µM (FLT3(D835Y); 100 nM): 69% | remaining binding at 1 µM (FLT3(D835Y); 1000 nM): 72% | remaining binding at 0.1 µM (MST3; 100 nM): 100% | remaining binding at 1 µM (MST3; 1000 nM): 100% | remaining binding at 0.1 µM (MARK4; 100 nM): 100% | remaining binding at 1 µM (MARK4; 1000 nM): 100% | remaining binding at 0.1 µM (LTK; 100 nM): 100% | remaining binding at 1 µM (LTK; 1000 nM): 100% | remaining binding at 0.1 µM (SRC; 100 nM): 66% | remaining binding at 1 µM (SRC; 1000 nM): 33% | remaining binding at 0.1 µM (NEK4; 100 nM): 72% | remaining binding at 1 µM (NEK4; 1000 nM): 65% | remaining binding at 0.1 µM (PAK4; 100 nM): 100% | remaining binding at 1 µM (PAK4; 1000 nM): 81% | remaining binding at 0.1 µM (WNK3; 100 nM): 82% | remaining binding at 1 µM (WNK3; 1000 nM): 71%
